Source: patent EP4342885A1, “N-(3-(AMINOMETHYL)-PHENYL)-5-(4-PHENYL)-5-(TRIFLUOROMETHYL)-4,5-DIHYDROISOXAZOL-3-AMINE DERIVATIVES AND SIMILAR COMPOUNDS AS PESTICIDES” (priority 2022, dated 2024)

Tests used:
Type in all cases: in vivo
Anthonomus grandis = test: Boll weevil (Anthonomus grandis) control, 96-well microtiter plate insect diet with eggs; conditions: 120 h, read-out: mortality in comparison with untreated controls
Description: For evaluating control of boll weevil, the test unit consisted of 96-well-microtiter plates containing an insect diet and 5-10 A. grandis eggs.
The compounds were formulated using a solution containing 75% v/v water and 25% v/v DMSO. Different concentrations of formulated compounds were sprayed onto the insect diet at 5µl, using a custom-built micro atomizer, at two replications.
After application, microtiter plates were incubated at about 25 ± 1°C and about 75 ± 5 % relative humidity for 5 days. Egg and larval mortality were then visually assessed.

Myzus persicae = test: Green peach aphid (Myzus persicae), mixed life stages, systemic test via artificial diet under membrane; conditions: 72 h, read-out: mortality in comparison with untreated controls
Text: For evaluating control of Green Peach Aphid through systemic means the test unit consisted of 96-well-microtiter plates containing liquid artificial diet under an artificial membrane. The compounds were formulated using a solution containing 75% v/v water and 25% v/v DMSO. Different concentrations of formulated compounds were pipetted into the aphid diet, using a custom-built pipette, at two replications. After application, 5 - 8 adult aphids were placed on the artificial membrane inside the microtiter plate wells. The aphids were then allowed to suck on the treated aphid diet and incubated at about 23 ± 1°C and about 50 ± 5 % relative humidity for 3 days. Aphid mortality and fecundity was then visually assessed.

Plutella xylostella = test: Diamond back moth (Plutella xylostella) control, 96-well microtiter plate insect diet with eggs; conditions: 120 h, read-out: mortality in comparison with untreated controls
Description: For evaluating control of […] (Plutella xylostella) the test unit consisted of 96-well-microtiter plates containing an insect diet and 15-25 P. xylostella eggs.
The compounds or mixtures were formulated using a solution containing 75% water and 25% DMSO. Different concentrations of formulated compounds or mixtures were sprayed onto the insect diet at 5µl, using a custom-built micro atomizer, at two replications.
After application, microtiter plates were incubated at 28 ± 1°C, 80 ± 5 % RH for 5 days. Egg and larval mortality was then visually assessed.

Aedes aegypti = test: whole plant or invertebrate; conditions: 48 h, larval mortality, 2 days, read-out: mortality in comparison with untreated controls
Description: For evaluating control of Yellow Fever Mosquito, the test unit consisted of 96-well-microtiter plates containing 200µl of tap water per well and 5-15 freshly hatched A. aegypti larvae. The active compounds were formulated using a solution containing 75% (v/v) water and 25% (v/v) DMSO. Different concentrations of formulated compounds or mixtures were sprayed onto the insect diet at 2.5µl, using a custom-built micro atomizer, at two replications.
After application, microtiter plates were incubated at 28 ± 1°C, 80 ± 5 % RH for 2 days. Larval mortality was then visually assessed.

Heliothis virescens = test: Tobacco budworm (Heliothis virescens) control, 96-well microtiter plate insect diet with eggs; conditions: 120 h, read-out: mortality in comparison with untreated controls
Description: For evaluating control of Tobacco Budworm, the test unit consisted of 96-well-microtiter plates containing an insect diet and 15-25 H. virescens eggs. The compounds were formulated using a solution containing 75% v/v water and 25% v/v DMSO. Different concentrations of formulated compounds were sprayed onto the insect diet at 10µl, using a custom-built micro atomizer, at two replications. After application, microtiter plates were incubated at about 28 ± 1°C and about 80 ± 5 % relative humidity for 5 days. Egg and larval mortality was then visually assessed.

Measured: mortality at 800 ppm

CCOC(=O)N(C1=NOC(c2cc(Cl)c(F)c(Cl)c2)(C(F)(F)F)C1)c1ccc(F)c(CNC(=O)C2CC2)c1 (stereo not drawn) [I-42]
≥ 75%: all assays above

O=C(NCc1cc(NC2=NOC(c3cc(Cl)cc(Cl)c3)(C(F)(F)Cl)C2)ccc1F)C1CC1 (stereo not drawn) [I-43]
≥ 75%: all assays above

O=C(NCc1cc(NC2=NOC(c3ccc(F)c(Cl)c3)(C(F)(F)F)C2)ccc1Cl)C1CSC1 (stereo not drawn) [I-45]
≥ 75%: all assays above

O=C(NCc1cc(NC2=NOC(c3ccc(F)c(Cl)c3)(C(F)(F)F)C2)ccc1Cl)C1CC1(F)F (stereo not drawn) [I-48]
≥ 75%: all assays above

CCC(=O)NCc1cc(NC2=NOC(c3ccc(F)c(Cl)c3)(C(F)(F)F)C2)ccc1Cl (stereo not drawn) [I-50]
≥ 75%: all assays above

O=C(N[C@H]1CCc2ccc(NC3=NOC(c4ccc(F)c(Cl)c4)(C(F)(F)F)C3)cc21)C1CC1 (stereo partly drawn) [III-1]
≥ 75%: all assays above
